The values that follow are results of earlier work, collected in PMC11920646 (Frontiers in Pharmacology, 2025).

In data set [1] the test system is IL-6 release in A549 cells. More on the design: method as in Hu et al., 2011. The following applies: dagrocorat study ref Hu et al., 2011; cited from earlier work.
Data set [2] deals with IFN-γ release in human whole blood. More on the design: method as in Hu et al., 2011. The following applies: at concentrations each of 100–1000 nM ref Hu et al., 2011; cited from earlier work.
The conditions of data set [3]: humans ref Ripa et al., 2018; cited from earlier work.

For the compound `Cc1ncccc1NC(=O)c1ccc2c(c1)CC[C@@H]1C[C@@](O)(C(F)(F)F)CC[C@@]21Cc1ccccc1` [dagrocorat], the “inhibition of IL-6 release in A549 cells” value in data set [1] is reported as 78%. Moreover, the “inhibition of IFN-γ release in human whole blood” value in data set [2] is listed as 60–70%.
As usually defined, the t½ is the time in which the quantity being followed falls by half. With `CC(C)[C@H](NC(=O)C(C)(F)F)[C@H](Oc1ccc2c(cnn2-c2ccc(=O)n(C)c2)c1)c1ccccc1` [mizacorat], the t½ in data set [3] was ~5 h.
